According to ChEMBL document CHEMBL1201862, “PubChem BioAssay data set” (2004):
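48-hour exposure; five concentrations; linearly interpolated endpoints. GI50 marks 50% less growth.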 Calls of active or inactive are those of the source. Cut-off read from the data, not from the text of the source: active = GI50 up to about 1.1 µM and inactive = higher.

What was measured:
Experiment in all cases: NCI-60 cell line screen, 48 h
PC-3 = system: PC-3
HCT-116 = system: HCT-116
CCRF-CEM = system: CCRF-CEM
SK-MEL-28 = system: SK-MEL-28
DU-145 = system: DU-145
SR = system: SR
SW-620 = system: SW-620
MDA-MB-435 = system: MDA-MB-435
OVCAR-5 = system: OVCAR-5
UO-31 = system: UO-31
OVCAR-8 = system: OVCAR-8
NCI/ADR-RES = system: NCI/ADR-RES
HCT-15 = system: HCT-15
A549 = system: A549
SK-MEL-5 = system: SK-MEL-5
HOP-92 = system: HOP-92
Hs-578T = system: Hs-578T
SF-268 = system: SF-268
SNB-75 = system: SNB-75
NCI-H226 = system: NCI-H226

Cc1cccc2c(N)c3cccc(C(=O)NCCNCCN)c3nc12
GI50 (PC-3): 10.8 µM (inactive) | GI50 (HCT-116): 2.52 µM (inactive) | GI50 (CCRF-CEM): 0.448 µM (active) | GI50 (SK-MEL-28): 15.8 µM (inactive) | GI50 (DU-145): 2.62 µM (inactive) | GI50 (SR): 8.09 µM (inactive) | GI50 (SW-620): 8.02 µM (inactive) | GI50 (MDA-MB-435): 18.7 µM (inactive) | GI50 (OVCAR-5): 22.8 µM (inactive) | GI50 (UO-31): 12.3 µM (inactive) | GI50 (OVCAR-8): 0.995 µM (active) | GI50 (NCI/ADR-RES): 27.9 µM (inactive) | GI50 (HCT-15): 12.4 µM | GI50 (A549): 0.203 µM (active) | GI50 (SK-MEL-5): 5.11 µM (inactive) | GI50 (HOP-92): 7.6 µM (inactive) | GI50 (Hs-578T): 1.24 µM (inactive) | GI50 (SF-268): 0.0698 µM (active) | GI50 (SNB-75): 0.631 µM (active)

O=C(/C=C1\C[C@H]2C=Nc3ccccc3C(=O)N2C1)NCCCNC(=O)/C=C1\C[C@H]2C=Nc3ccccc3C(=O)N2C1
GI50 (PC-3): 17.6 µM (inactive) | GI50 (HCT-116): 16 µM (inactive) | GI50 (SK-MEL-28): 18.9 µM (inactive) | GI50 (DU-145): 18.5 µM (inactive) | GI50 (SR): 2.11 µM (inactive) | GI50 (SW-620): 5.51 µM (inactive) | GI50 (MDA-MB-435): 19.1 µM (inactive) | GI50 (OVCAR-5): 21.2 µM (inactive) | GI50 (UO-31): 14.7 µM (inactive) | GI50 (OVCAR-8): 18.6 µM (inactive) | GI50 (NCI/ADR-RES): 23.3 µM (inactive) | GI50 (HCT-15): 18.1 µM | GI50 (NCI-H226): 20.7 µM (inactive) | GI50 (A549): 21.1 µM (inactive) | GI50 (SK-MEL-5): 16.1 µM (inactive) | GI50 (HOP-92): 20 µM (inactive) | GI50 (Hs-578T): 32 µM (inactive) | GI50 (SF-268): 16.7 µM (inactive) | GI50 (SNB-75): 16.2 µM (inactive)

CN1C(NCCO)=NS(=O)(=O)c2ccccc21
GI50 (PC-3): > 100 µM (inactive) | GI50 (HCT-116): > 100 µM (inactive) | GI50 (CCRF-CEM): > 100 µM (inactive) | GI50 (SK-MEL-28): > 100 µM (inactive) | GI50 (DU-145): > 100 µM (inactive) | GI50 (SR): 8.75 µM (inactive) | GI50 (SW-620): > 100 µM (inactive) | GI50 (MDA-MB-435): > 100 µM (inactive) | GI50 (OVCAR-5): > 100 µM (inactive) | GI50 (UO-31): > 100 µM (inactive) | GI50 (OVCAR-8): > 100 µM (inactive) | GI50 (NCI/ADR-RES): > 100 µM (inactive) | GI50 (HCT-15): > 100 µM | GI50 (NCI-H226): > 100 µM (inactive) | GI50 (A549): > 100 µM (inactive) | GI50 (SK-MEL-5): > 100 µM (inactive) | GI50 (HOP-92): > 100 µM (inactive) | GI50 (Hs-578T): > 100 µM (inactive) | GI50 (SF-268): > 100 µM (inactive)
